Legend:
[1] = tested on: Glomerella Lagenarium (Colletotrichum Lagenarium); experiment: Glomerella lagenarium (Colletotrichum lagenarium) liquid culture / cucumber / preventative (anthracnose); type: cell-based; conditions: Colletotrichum orbiculare; 20 ppm in the applied formulation; liquid culture in PDB, 24° C., inhibition of growth measured photometrically 3 to 4 days after application, vs untreated; read-out: disease control
Procedure, shortened: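 Conidia from cryogenic storage were mixed into potato dextrose broth. This was added to compound diluted from DMSO into 0.025% Tween20, tested at 20 ppm. Plates were incubated in the dark at 24 °C and 96% relative humidity, and growth was read photometrically after 2–7 days as % activity versus untreated check.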

[2] = tested on: Puccinia recondita f. Sp. Tritici; experiment: Puccinia recondita f. sp. tritici / wheat / leaf disc preventative (brown rust); type: in vivo; conditions: foliar, 168 h, 200 ppm in the applied formulation, wheat leaf segments cv. Kanzler, preventative, inoculated 1 day after application, assessed 7 to 9 days after application, vs untreated, read-out: disease control
Procedure, shortened: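 Wheat cv. Kanzler leaf segments on agar were sprayed with formulated compound in water, then inoculated with spores 1 day later. Incubated at 19° C, 75% rh, 12 h light/12 h dark; percent disease control versus untreated scored 7 to 9 days after application.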

[3] = tested on: Puccinia recondita f. Sp. Tritici; experiment: Puccinia recondita f. sp. tritici / wheat / leaf disc curative (brown rust); type: in vivo; conditions: foliar, 144 h, 200 ppm in the applied formulation, wheat leaf segments cv. Kanzler, applied 1 day after inoculation, assessed 6 to 8 days after application, vs untreated, read-out: disease control
Procedure, shortened: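 Wheat cv. Kanzler leaf segments on agar were inoculated with fungal spore suspension, held dark at 19° C and 75% RH, then sprayed 1 day later with formulated compound diluted in water. Incubation continued at 19° C, 75% RH, 12 h light/12 h dark; percent disease control versus untreated was scored 6 to 8 days after application.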

CSc1ncnn1Cc1ccc(-c2noc(C(F)(F)F)n2)cc1 [Compound 1.298, 3-[4-[(5-methylsulfanyl-1,2,4-triazol-1-yl)methyl]phenyl]-5-(trifluoromethyl)-1,2,4-oxadiazole]
inhibition of growth at 20 ppm [1]: ≥ 80% | melting point: 72 to 73.2 °C | pest or weed control at 200 ppm [2]: ≥ 80% | pest or weed control at 200 ppm [3]: ≥ 80%

CCCON=Cc1cnn(Cc2ccc(-c3noc(C(F)(F)F)n3)cc2)c1 [Compound 1.287, N-propoxy-1-[1-[[4-[5-(trifluoromethyl)-1,2,4-oxadiazol-3-yl]phenyl]methyl]pyrazol-4-yl]methanimine]
inhibition of growth at 20 ppm [1]: ≥ 80% | melting point: 60 to 95 °C | pest or weed control at 200 ppm [2]: ≥ 80% | pest or weed control at 200 ppm [3]: ≥ 80%

CS(=O)(=O)c1ncnn1Cc1ccc(-c2noc(C(F)(F)F)n2)cc1 [Compound 1.294, 3-[4-[(5-methylsulfonyl-1,2,4-triazol-1-yl)methyl]phenyl]-5-(trifluoromethyl)-1,2,4-oxadiazole]
inhibition of growth at 20 ppm [1]: ≥ 80% | melting point: 119.2 to 119.8 °C | pest or weed control at 200 ppm [2]: ≥ 80% | pest or weed control at 200 ppm [3]: ≥ 80%

CS(=O)(=O)c1ncn(Cc2ccc(-c3noc(C(F)(F)F)n3)cc2)n1 [Compound 1.296, 3-[4-[(3-methylsulfonyl-1,2,4-triazol-1-yl)methyl]phenyl]-5-(trifluoromethyl)-1,2,4-oxadiazole]
inhibition of growth at 20 ppm [1]: ≥ 80% | melting point: 145.4 to 146.4 °C | pest or weed control at 200 ppm [2]: ≥ 80% | pest or weed control at 200 ppm [3]: ≥ 80%

COc1cc(-c2noc(C(F)(F)F)n2)ccc1Cn1cncn1 [Compound 1.97, 3-[3-methoxy-4-(1,2,4-triazol-1-ylmethyl)phenyl]-5-(trifluoromethyl)-1,2,4-oxadiazole]
inhibition of growth at 20 ppm [1]: ≥ 80% | melting point: 102 to 106 °C | pest or weed control at 200 ppm [3]: ≥ 80%

C[S+]([O-])c1ncn(Cc2ccc(-c3noc(C(F)(F)F)n3)cc2)n1 (stereo not drawn) [Compound 1.297, 3-[4-[(3-methylsulfinyl-1,2,4-triazol-1-yl)methyl]phenyl]-5-(trifluoromethyl)-1,2,4-oxadiazole]
inhibition of growth at 20 ppm [1]: ≥ 80% | melting point: 114.4 to 115.2 °C | pest or weed control at 200 ppm [2]: ≥ 80% | pest or weed control at 200 ppm [3]: ≥ 80%

CNC(=O)c1cnnn1Cc1ccc(-c2noc(C(F)(F)F)n2)cc1 [Compound 1.291, N-methyl-3-[[4-[5-(trifluoromethyl)-1,2,4-oxadiazol-3-yl]phenyl]methyl]triazole-4-carboxamide]
melting point: 222 to 224 °C | pest or weed control at 200 ppm [3]: ≥ 80%

CSc1ncn(Cc2ccc(-c3noc(C(F)(F)F)n3)cc2)n1 [Compound 1.299, 3-[4-[(3-methylsulfanyl-1,2,4-triazol-1-yl)methyl]phenyl]-5-(trifluoromethyl)-1,2,4-oxadiazole]
inhibition of growth at 20 ppm [1]: ≥ 80% | melting point: 88 to 90.4 °C | pest or weed control at 200 ppm [2]: ≥ 80% | pest or weed control at 200 ppm [3]: ≥ 80%

C[S+]([O-])c1ncnn1Cc1ccc(-c2noc(C(F)(F)F)n2)cc1 (stereo not drawn) [Compound 1.295, 3-[4-[(5-methylsulfinyl-1,2,4-triazol-1-yl)methyl]phenyl]-5-(trifluoromethyl)-1,2,4-oxadiazole]
inhibition of growth at 20 ppm [1]: ≥ 80% | melting point: 71.2 to 73.7 °C | pest or weed control at 200 ppm [2]: ≥ 80% | pest or weed control at 200 ppm [3]: ≥ 80%

FC(F)(F)c1nc(-c2ccc(Cn3cc(C=NOCc4ccccc4)cn3)cc2)no1 [Compound 1.289, N-benzyloxy-1-[1-[[4-[5-(trifluoromethyl)-1,2,4-oxadiazol-3-yl]phenyl]methyl]pyrazol-4-yl]methanimine]
inhibition of growth at 20 ppm [1]: ≥ 80% | melting point: 75 to 85 °C | pest or weed control at 200 ppm [2]: ≥ 80%

O=C(O)c1cn(Cc2ccc(-c3noc(C(F)(F)F)n3)cc2)nn1 [Compound 1.271, 1-[[4-[5-(trifluoromethyl)-1,2,4-oxadiazol-3-yl]phenyl]methyl]triazole-4-carboxylic acid]
melting point: 208 to 210 °C | pest or weed control at 200 ppm [2]: ≥ 80% | pest or weed control at 200 ppm [3]: ≥ 80%

— patent publication US10798941B2, “Microbiocidal oxadiazole derivatives” (SYNGENTA PARTICIPATIONS AG, priority 2016, dated 2020)
